Laboratory results reported in PMC7596504, “Molecular mechanism of the MORC4 ATPase activation” (Nature Communications, 2020).
Where “and” joins values, the source holds several entries; their conditions need not be identical. Identical values can stand only once. One block for each compound: values may come before it.

Experiments:
NCP252 = experiment: FRET, Gal4 titration into Cy3-Cy5 labeled NCP252; type: binding; conditions: for S1/2: mean of n = 3
Experimental: Histone octamers unlabeled or labeled with Cy5 at H2AK119 were prepared as previously described. NCPs were reconstituted by combining octamer with 1.25× excess DNA and performing slow salt dialysis. Free DNA was then separated from fully reconstituted NCPs by sucrose gradient purification. NCPs for fluorescence polarization assays were reconstituted from unlabeled octamer and 207 bp DNA containing the 601 Widom sequence flanked with a 30 bp linker on either side and internally labeled with Fluorescein 27 bp in from the 5′ end. Cy3-Cy5 labeled NCPs for FRET assays were reconstituted with Cy5 labeled octamer plus either 147 bp 601 Widom DNA containing a LexA transcription factor binding site at bases 8–27[34], or 252 bp DNA containing the 601 Widom sequence with a 75 bp linker at the 3′ end, a 30 bp linker at the 5’ end, and a Gal4 transcription factor binding site at bases 8–26 in the 601 Widom sequence. The 147 bp LexA-binding DNA was labeled with Cy3 on the 5′ end, and the 252 bp Gal4-binding DNA was internally labeled with Cy3 34 bp in from the 5′ end.
LexA was expressed in E. coli, separated from genomic DNA and the proteome by polyethyleneimine precipitation, and salted out with ammonium sulfate. LexA was resuspended in buffer A (20 mM potassium phosphate pH 7, 0.1 mM EDTA, 10% glycerol, 1 mM DTT) + 200 mM NaCl and purified by a linear gradient to A + 800 mM NaCl over either a cellulose phosphate or HiTrap Heparin HP column. Final LexA purification was performed on a hydroxyapatite column and dialyzed into 10 mM PIPES pH 7.0, 0.1 mM EDTA, 10% glycerol, and 200 mM NaCl for storage at −80 °C. The His-tagged DNA-binding domain (aa 1–147) of Gal4 was expressed in E. coli and purified from lysate by a linear gradient of buffer B (25 mM Tris pH 7.5, 200 mM NaCl, 0.2% Tween 20, 20 µM zinc acetate, 1 mM dithiothreitol, and 1 mM PMSF) + 10 mM imidazole to B + 200 mM imidazole over a Nickel-NTA column. Gal4 (1–147) was then further purified by a linear gradient of buffer C (25 mM Tris pH 7.5, 20 µM zinc acetate, 1 mM dithiothreitol, and 1 mM PMSF) + 200 mM NaCl to C + 800 mM NaCl over a Tosoh cation exchange column. Purified Gal4 (1–147) was then dialyzed into 10 mM HEPES pH 7.5, 200 mM NaCl, 10% glycerol, 20 µM zinc acetate, 1 mM DTT, and 1 mM PMSF for storage at −80 °C.
Cy3-Cy5 NCP FRET efficiency measurements were carried out on a Horiba Scientific Fluoromax 4. Samples were excited at 510 and 610 nm and the photoluminescence spectra were collected from 530 to 750 nm and 630 to 750 nm for donor and acceptor excitations, respectively. Each wavelength was integrated for one second, and the excitation and emission slit width were set to 5 nm with 2 nm emission wavelength steps. FRET measurements were computed through the (ratio)A method. LexA titrations were carried out in 20 mM Tris pH 7.5, 75 mM NaCl, 10% glycerol, 0.00625% Tween 20 buffer with 5 nM 147 bp Cy3-Cy5 NCPs mixed in 20 µL reaction volumes and allowed to incubate for 5 mins at 4 °C before FRET of the sample was measured. To measure changes in accessibility of the NCP147 due to MORC4 ATPaseCW binding, LexA titrations were repeated in the presence of NCP binding saturating concentrations of MORC4 ATPaseCW. Gal4 (1–147) titrations were carried out in 10 mM Tris pH 8, 130 mM NaCl, 10% glycerol, 0.0075% Tween 20 buffer with 1 nM 252 bp Cy3-Cy5 nucleosomes mixed in 60 µL reaction volumes and allowed to incubate for 10 mins at room temperature before FRET of the sample was measured. […]

MORC4 CW domain = molecular target: T1, MORC4 CW domain (Homo sapiens, UniProt Q8TE76); experiment: Tryptophan fluorescence binding of histone H3 peptides to MORC4 CW; conditions: for Kd: tryptophan fluorescence, 25 °C, pH 6.8, 100 mM NaCl, excitation 295 nm, isolated CW
T1 construct: The CW domain (aa 417–475) of MORC4 was cloned into a pGEX 6p-1 vector; GST (N, cleaved yes); made in house; host or cells: E. coli Rosetta2 (DE3) pLysS or BL21 (DE3) RIL
T1 sequence (Q8TE76 417-475): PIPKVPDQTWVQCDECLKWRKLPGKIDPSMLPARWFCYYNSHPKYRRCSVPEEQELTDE
Experimental: Spectra were recorded at 25 °C on a Fluoromax-3 spectrofluorometer (HORIBA). The samples containing 0.5–1 µM wild-type or mutated ATPaseCW or CW in 20 mM Tris pH 6.8, 100 mM NaCl, 2 mM DTT buffer and progressively increasing concentrations of the histone peptides were excited at 295 nm. Emission spectra were recorded between 320 and 360 nm with a 0.5 nm step size and a 0.5 s integration time and averaged over three scans. The Kd values were determined using a nonlinear least-squares analysis and the equation:1 ΔI=ΔImaxL+P+Kd−L+P+Kd^2−4PL/2P where [L] is the concentration of the histone peptide, [P] is the concentration of the protein, ΔI is the observed change of signal intensity, and ΔImax is the difference in signal intensity of the free and bound states of the protein. The Kd values were averaged over three separate experiments with the error calculated as the standard deviation between the runs.

601 DNA = experiment: EMSA with 601 DNA; type: binding; conditions: for binding to 601 DNA: 147 bp 601 DNA 5 pmol, pH 7.5, 150 mM NaCl, 0.5 h on ice
Experimental: EMSA experiments were performed essentially as described. In brief, increasing amounts of WT or mutant CW or ATPaseCW cassette of MORC4 were incubated with 147 bp 601 DNA (5 pmol) or 50 ng of O’RangeRuler 5 bp ladder (Thermo Scientific) in a DNA-binding buffer containing 20 mM Tris-HCl (pH 7.5), 150 mM NaCl, 2.5 mM MgCl2, and 2 mM DTT for 0.5 h on ice. The reaction mixtures were loaded on 5% native polyacrylamide gels, and electrophoresis was performed in 0.2× Tris-borate-EDTA (TBE) buffer at 100 V for 1.2 h on ice. Gels were stained with SYBR Gold (Invitrogen).

Compound: Gal4: DNA-binding domain (aa 1–147) of transcription factor Gal4
S1/2 (NCP252; FRET efficiency reduced by 50%, without MORC4, 1 nM NCP252, pH 8, 130 mM NaCl, room temperature, 10 min): 20 ± 4 nM and 20 nM
decrease in ability to bind NCP252 (NCP252; MORC4 ATPaseCW with ATP vs no MORC4): ~ 5 fold
decrease in ability to bind NCP252 (NCP252; MORC4 ATPaseCW without ATP vs no MORC4): 2 fold
S1/2 (NCP252; in presence of MORC4 ATPaseCW with 0.3 mM ATP): 100 ± 7 nM and 100 nM
S1/2 (NCP252; in presence of MORC4 ATPaseCW, without ATP): 40 ± 5 nM and 40 nM

Kd (MORC4 CW domain; mean ± S.D. of n = 3): 2.66 µM
Compound: C[C@H](N)C(=O)N[C@@H](CCCNC(=N)N)C(=O)N[C@H](C(=O)N[C@@H](CCCCN)C(=O)N[C@@H](CCC(N)=O)C(=O)N[C@H](C(=O)N[C@@H](C)C(=O)N[C@@H](CCCNC(=N)N)C(=O)N[C@@H](CCCCN)C(=O)N[C@@H](CO)C(=O)N[C@H](C(=O)NCC(=O)O)[C@@H](C)O)[C@@H](C)O)[C@@H](C)O [H3]

higher binding affinity to H3K4me3 than other readers (MORC4 CW domain; MORC4 CW vs other H3K4me3 readers (compared with ref [21],[22])): 7–10 fold
binding to 601 DNA (601 DNA): indicating the direct interaction
Compound: CW: CW domain (aa 417–475) of MORC4 (PIPKVPDQTWVQCDECLKWRKLPGKIDPSMLPARWFCYYNSHPKYRRCSVPEEQELTDE; left off: GST, end not stated, cleaved)

effect on binding of ATPaseCW to 601 DNA (601 DNA; added to ATPaseCW): increases binding to 601 DNA
Compound: Nc1ncnc2c1ncn2[C@@H]1O[C@H](COP(=O)(O)OP(=O)(O)NP(=O)(O)O)[C@@H](O)[C@H]1O [AMPPNP, adenylyl-imidodiphosphate, reference compound]

Compound: CWKRR: triple mutant of the MORC4 CW domain, K460A/R462A/R463A (PIPKVPDQTWVQCDECLKWRKLPGKIDPSMLPARWFCYYNSHPAYAACSVPEEQELTDE; left off: GST, end not stated, cleaved)
binding to 601 DNA (601 DNA): did not observe the 601 DNA band shift even at the DNA to CWKRR molar ratio of 1 to 200

Kd (MORC4 CW domain; mean of n = 3): 0.112 µM
Compound: C[C@H](N)C(=O)N[C@@H](CCCNC(=N)N)C(=O)N[C@H](C(=O)N[C@@H](CCCC[N+](C)(C)C)C(=O)N[C@@H](CCC(N)=O)C(=O)N[C@H](C(=O)N[C@@H](C)C(=O)N[C@@H](CCCNC(=N)N)C(=O)N[C@@H](CCCCN)C(=O)N[C@@H](CO)C(=O)N[C@H](C(=O)NCC(=O)O)[C@@H](C)O)[C@@H](C)O)[C@@H](C)O [H3K4me3]
